Test results reported in paper PMC9467586, “Development of novel 9-O-substituted-13-octylberberine derivatives as potential anti-hepatocellular carcinoma agents” (Journal of Enzyme Inhibition and Medicinal Chemistry, 2022).

Experiments:
HepG2 cells = test: Mitochondrial membrane potential (MMP) measurement with JC-1; assay type: cell-based, human; conditions: 72 h (control 1.90%)
Description: HepG2 cells were incubated with 6k as described above. After incubation for 72 h, the cells were washed in PBS and resuspended in 500 μL JC-1 incubation buffer at 37 °C for 15 min. Then, […] was immediately assessed for a red fluorescence using a microplate reader (ELx80, Bio-Tek, USA). The fluorescent signal of monomers was measured with an excitation wavelength of 488 nm. The percentage of cells with healthy or collapsed mitochondrial membrane potentials was monitored by flow cytometry analysis (BectoneDickinson, San Jose, CA, USA).

Huh-7 cells = test: In vitro antiproliferative MTT assay, Huh-7 cells; assay type: cell-based, human; conditions: Homo sapiens, 72 h, mean ± SD (n = 3)
Description: (§1) HepG2, Sk-Hep-1, Huh-7, Hep3B and L-02 cells were purchased from Nanjing Key Gen Biotech Co. Ltd. (Nanjing, China). The cytotoxicity of test compounds was determined using an MTT assay. Briefly, the cell lines were incubated at 37 °C in a humidified 5% CO2 incubator for 24 h in 96-microwell plates. After medium removal, 100 μL of culture medium with 0.1% DMSO containing test compounds at different concentrations was added to each well and incubated at 37 °C for another 72 h. The MTT (5 mg/mL in PBS) was added and incubated for another 4 h, the optical density was detected with a microplate reader at 490 nm. The IC50 values were calculated according to the dose-dependent curves. All the experiments were repeated in at least three independent experiments.

[1] = tested on: human hepatoma cells including HepG2, Sk-Hep-1 and Huh-7 cells; test: Antiproliferative MTT assay, summary over human hepatoma cells; assay type: cell-based; conditions: read-out: IC50 values against human hepatoma cells (span over cell lines)
Description: as §1

[2] = Aqueous solubility measurement by HPLC; assay type: physicochemical; conditions: 25 °C, pH 7.4, aqueous buffer, thermodynamic from solid
Description: Berberine, 3c and 6k (5 mg) were dissolved in 1 ml PBS (50 mM, pH 7.4) at 25 °C. The suspension was sonicated for 30 min and then centrifuged at 15000 g for 5 min. The supernatant was filtered through a PTFE filter (0.2 μm) slowly. Then 10 μL filtered solution was injected into the HPLC system (Shimadzu DGU-20A3R) on a Shimadzu-GL WondaSil C18-WR column and quantified using the standard curves made by the corresponding known concentrations of berberine, 3c and 6k. The eluent was methanol/water (65/35, v/v) at a flow rate of 1.0 ml/min with the detection wavelength at 254 nm.

normal hepatocytes L-02 = test: MTT cytotoxicity assay, normal hepatocytes L-02; assay type: cell-based; conditions: Hepatocyte; normal hepatocytes L-02, MTT, 72 h, mean ± SD (n = 3)
Description: as §1

CCCCCCCCc1c2[n+](cc3c(OCCCCCCCCN4CCN(C)CC4)c(OC)ccc13)CCc1cc3c(cc1-2)OCO3.[Br-] [Compound 6k, 10-Methoxy-9-((8–(4-methylpiperazin-1-yl)octyl)oxy)-13-octyl-5,6-dihydro-[1,3]dioxolo[4,5-g]isoquinolino[3,2-a]isoquinolin-7-ium bromide]
percentage of cells with green fluorescence (JC-1) (HepG2 cells; HepG2, 0.25 μM): 10.33% | percentage of cells with green fluorescence (JC-1) (HepG2 cells; HepG2, 1.0 μM): 37.52% | IC50 (Huh-7 cells): 620 ± 40 nM | IC50 [1]: 620 to 1690 nM | solubility at 30 min [2]: 1080 µg/mL | IC50 (normal hepatocytes L-02): 7680 ± 670 nM
